How the values were obtained:
[1] = target: T1, P70S6K (T412E mutant, Millipore) (Homo sapiens, UniProt P23443, T412E); experiment: P70S6K enzyme assay; type: biochemical; conditions: enzyme inhibition; 24 μM ATP, 90 min at 25° C., Caliper mobility shift
T1 construct: purchased Millipore
Experimental: (§1) The IC50 values reported for the compounds in the Experimental section were derived from the following protocol for the p70S6K and AKT enzyme assays.
P70S6K inhibitor compounds were diluted and plated in 96 well plates. A reaction mixture including the following components was then added to the compound plate to initiate the enzyme reaction; P70S6K (3 nM, T412E mutant, Millipore) was mixed with 24 μM ATP in an assay buffer containing 100 mM Hepes (pH 7.5), 5 mM MgCl2, 1 mM DTT, 0.015% Brij and 1 μM of the substrate peptide FITC-AHA-AKRRRLSSLRA-OH (derived from the S6 ribosomal protein sequence, FITC=fluorescein isothiocyanate, AHA=6-aminohexanoic acid). The reaction was incubated for 90 min at 25° C., before the addition of 10 mM EDTA to stop the reaction. The proportion of substrate and product (phosphorylated) peptide was analysed on a Caliper Life Sciences Lab Chip 3000, using a pressure of −1.4 psi, and upstream and downstream voltages of −3000 and −700 respectively. Product peaks were resolved before substrate peaks on the resulting chromatograms.

[2] = target: T2, His-AKT (Full Length) (Homo sapiens, UniProt P31749); experiment: AKT enzyme assay; type: biochemical; conditions: enzyme inhibition; 160 uM ATP, 90 min at 25° C., Caliper mobility shift
T2 construct: 0.1 ng/μl His-AKT (Full Length); His; purchased Invitrogen P2999
T2 sequence (P31749 whole entry): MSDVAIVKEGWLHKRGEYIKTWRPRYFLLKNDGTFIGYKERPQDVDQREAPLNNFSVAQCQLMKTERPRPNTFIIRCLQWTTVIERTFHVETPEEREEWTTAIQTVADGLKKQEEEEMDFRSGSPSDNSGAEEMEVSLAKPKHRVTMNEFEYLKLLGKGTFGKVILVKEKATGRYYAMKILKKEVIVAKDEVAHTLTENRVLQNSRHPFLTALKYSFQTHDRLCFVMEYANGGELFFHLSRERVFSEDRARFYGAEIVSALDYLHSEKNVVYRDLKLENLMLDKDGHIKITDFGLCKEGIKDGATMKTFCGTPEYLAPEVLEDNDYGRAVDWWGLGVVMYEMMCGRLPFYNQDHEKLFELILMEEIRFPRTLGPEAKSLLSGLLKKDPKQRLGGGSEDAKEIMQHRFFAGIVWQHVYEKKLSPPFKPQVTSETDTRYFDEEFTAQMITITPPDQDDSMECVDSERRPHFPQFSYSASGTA
Experimental: as §1
A TTP Mosquito liquid handling instrument was used to place 125 nl of the appropriate concentration of inhibitor in 100% DMSO (for a dose response curve calculation) into each well of a 384-well plate. To this reaction components were added to a final volume of 12.5 μl: • 0.1 ng/μl His-AKT (Full Length), (Invitrogen, Part # P2999, Lot # 641228C). • 160 uM ATP (Fluke, 02055) • 1 mM DTT (Sigma, D0632) • 1 mM MgCl2 (Sigma, M1028) • 1 μM substrate peptide (sequence FITC-AHA-GRPRTSSFAEG-NH2), synthesized by Tufts Peptide Synthesis service. • 100 mM HEPES pH 7.5 (Calbiochem, 391338) • 0.015% Brij-35 (Sigma, B4184)
The reaction was incubated for 90 min at 25° C., and then stopped by the addition of 70 μl of Stop buffer (100 mM HEPES pH 7.5, 0.015% Brij-35, 10 mM EDTA (Sigma, E7889)).
The plate was read on a Caliper LC 3000 in an Off-Chip mobility shift assay format, using the following parameters for a 12-sipper chip: screening pressure −2.3 psi, upstream voltage −500, and downstream voltage −3000. These conditions caused unphosphorylated substrate and phosphorylated product peptide to resolve as separate peaks allowing direct measurement of percentage of conversion of substrate to product. The percent conversion was plotted against concentration of inhibitor to produce a sigmoidal dose response curve, from which an IC50 was calculated.

T1 sequence (P23443 whole entry T412E): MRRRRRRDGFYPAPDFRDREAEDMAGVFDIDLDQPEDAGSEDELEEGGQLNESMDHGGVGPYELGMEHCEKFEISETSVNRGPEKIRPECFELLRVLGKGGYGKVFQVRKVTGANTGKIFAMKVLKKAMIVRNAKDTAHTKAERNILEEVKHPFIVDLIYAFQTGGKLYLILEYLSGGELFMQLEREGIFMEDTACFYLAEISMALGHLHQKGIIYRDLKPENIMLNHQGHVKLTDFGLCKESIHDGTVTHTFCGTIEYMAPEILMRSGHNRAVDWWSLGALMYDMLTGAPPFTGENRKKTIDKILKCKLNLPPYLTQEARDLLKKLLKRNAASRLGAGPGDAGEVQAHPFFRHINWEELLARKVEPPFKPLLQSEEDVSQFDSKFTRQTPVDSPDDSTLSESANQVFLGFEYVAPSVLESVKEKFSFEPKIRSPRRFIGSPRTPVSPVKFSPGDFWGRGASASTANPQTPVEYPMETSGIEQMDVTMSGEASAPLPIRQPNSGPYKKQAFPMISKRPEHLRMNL

| SMILES | IC50 [1] | IC50 [2] |
| --- | --- | --- |
| CN(C)CCn1cc(-c2cccc(Cl)c2)nc1C1CCN(c2ncnc3c2NC(=O)CN3)CC1 [Compound A47, 4-{4-[4-(3-ChloroPhenyl)-1-(2-dimethylamin-1-yl-ethyl)-1H-imidazol-2-yl]-piperidin-1-yl}-7,8-dihydro-5H-pteridin-6-one] | 101 to 500 nM | 101 to 500 nM |
| CN(C)CCn1cc(-c2cccnc2)nc1C1CCN(c2ncnc3c2NC(=O)CN3)CC1 [Compound A48, 4-{4-[4-(Pyridin-3-yl)-1-(2-dimethylamin-1-yl-ethyl)-1H-imidazol-2-yl]-piperidin-1-yl}-7,8-dihydro-5H-pteridin-6-one] | > 1000 nM | > 1000 nM |
| Cc1ccc(-c2cn(CCN(C)C)c(C3CCN(c4ncnc5c4NC(=O)CN5)CC3)n2)cc1 [Compound A49, 4-{4-[4-(4-MethylPhenyl)-1-(2-dimethylamin-1-yl-ethyl)-1H-imidazol-2-yl]-piperidin-1-yl}-7,8-dihydro-5H-pteridin-6-one] | 101 to 500 nM | > 1000 nM |
| CN(C)CCn1cc(-c2ccc(F)cc2)nc1C1CCN(c2ncnc3c2NC(=O)CN3)CC1 [Compound A50, 4-{4-[4-(4-FluoroPhenyl)-1-(2-dimethylamin-1-yl-ethyl)-1H-imidazol-2-yl]-piperidin-1-yl}-7,8-dihydro-5H-pteridin-6-one] | 101 to 500 nM | 501 to 1000 nM |
| COc1cccc(-c2cn(CCN(C)C)c(C3CCN(c4ncnc5c4NC(=O)CN5)CC3)n2)c1 [Compound A51, 4-{4-[4-(3-Methoxy-phenyl)-1-(2-dimethylamin-1-yl-ethyl)-1H-imidazol-2-yl]-piperidin-1-yl}-7,8-dihydro-5H-pteridin-6-one] | 101 to 500 nM | 501 to 1000 nM |
| COc1ccc(-c2cn(CCN(C)C)c(C3CCN(c4ncnc5c4NC(=O)CN5)CC3)n2)cc1 [Compound A52, 4-{4-[4-(4-Methoxyl-henyl)-1-(2-dimethylamin-1-yl-ethyl)-1H-imidazol-2-yl]-piperidin-1-yl}-7,8-dihydro-5H-pteridin-6-one] | > 1000 nM | > 1000 nM |
| CN(C)CCn1cc(-c2ccccc2)nc1C1CCN(c2ncnc3c2NC(=O)CN3)CC1 [Compound A53, 4-{4-[4-(Phenyl)-1-(2-dimethylamin-1-yl-ethyl)-1H-imidazol-2-yl]-piperidin-1-yl}-7,8-dihydro-5H-pteridin-6-one] | > 1000 nM | > 1000 nM |
| Cc1cccc(-c2cn(CCN(C)C)c(C3CCN(c4ncnc5c4NC(=O)CN5)CC3)n2)c1 [Compound A54, 4-{4-[4-(3-MethylPhenyl)-1-(2-dimethylamin-1-yl-ethyl)-1H-imidazol-2-yl]-piperidin-1-yl}-7,8-dihydro-5H-pteridin-6-one] | 26 to 100 nM | 101 to 500 nM |
| CN(C)CCn1cc(C(F)(F)F)nc1C1CCN(c2ncnc3c2NC(=O)CN3)CC1 [Compound A55, 4-{4-[4-(4-trifouromethyl)-1-(2-dimethylamino-1-yl-ethyl)-1H-imidazol-2-yl]-piperidin-1-yl}-7,8-dihydro-5H-pteridin-6-one] | > 1000 nM | > 1000 nM |
| O=C1CNc2ncnc(N3CCC(c4nc(-c5ccc(F)c(F)c5)cn4CCN4CCCC4)CC3)c2N1 [Compound A56, 4-{4-[4-(3,4-DifluoroPhenyl)-1-(2-pyrrolidin-1-yl-ethyl)-1H-imidazol-2-yl]-piperidin-1-yl}-7,8-dihydro-5H-pteridin-6-one] | 26 to 100 nM | < 25 nM |
| O=C1CNc2ncnc(N3CCC(c4nc(-c5cccc(Cl)c5)cn4CCN4CCCC4)CC3)c2N1 [Compound A57, 4-{4-[4-(3-ChloroPhenyl)-1-(2-pyrrolidin-1-yl-ethyl)-1H-imidazol-2-yl]-piperidin-1-yl}-7,8-dihydro-5H-pteridin-6-one] | 26 to 100 nM | 26 to 100 nM |
| Cc1ccc(-c2cn(CCN3CCCC3)c(C3CCN(c4ncnc5c4NC(=O)CN5)CC3)n2)cc1 [Compound A58, 4-{4-[4-(4-MethylPhenyl)-1-(2-pyrrolidin-1-yl-ethyl)-1H-imidazol-2-yl]-piperidin-1-yl}-7,8-dihydro-5H-pteridin-6-one] | > 1000 nM | > 1000 nM |
| O=C1CNc2ncnc(N3CCC(c4nc(-c5ccc(F)cc5)cn4CCN4CCCC4)CC3)c2N1 [Compound A59, 4-{4-[4-(4-FluoroPhenyl)-1-(2-pyrrolidin-1-yl-ethyl)-1H-imidazol-2-yl]-piperidin-1-yl}-7,8-dihydro-5H-pteridin-6-one] | 26 to 100 nM | 101 to 500 nM |
| COc1cccc(-c2cn(CCN3CCCC3)c(C3CCN(c4ncnc5c4NC(=O)CN5)CC3)n2)c1 [Compound A60, 4-{4-[4-(3-MethoxyPhenyl)-1-(2-pyrrolidin-1-yl-ethyl)-1H-imidazol-2-yl]-piperidin-1-yl}-7,8-dihydro-5H-pteridin-6-one] | 101 to 500 nM | 101 to 500 nM |
| COc1ccc(-c2cn(CCN3CCCC3)c(C3CCN(c4ncnc5c4NC(=O)CN5)CC3)n2)cc1 [Compound A61, 4-{4-[4-(4-MethoxyPhenyl)-1-(2-pyrrolidin-1-yl-ethyl)-1H-imidazol-2-yl]-piperidin-1-yl}-7,8-dihydro-5H-pteridin-6-one] | > 1000 nM | 501 to 1000 nM |
| Cc1cccc(-c2cn(CCN3CCCC3)c(C3CCN(c4ncnc5c4NC(=O)CN5)CC3)n2)c1 [Compound A62, 4-{4-[4-(3-MethylPhenyl)-1-(2-pyrrolidin-1-yl-ethyl)-1H-imidazol-2-yl]-piperidin-1-yl}-7,8-dihydro-5H-pteridin-6-one] | 26 to 100 nM | 26 to 100 nM |
| O=C1CNc2ncnc(N3CCC(c4nc(C(F)(F)F)cn4CCN4CCCC4)CC3)c2N1 [Compound A63, 4-{4-[trifluoromethyl-1-(2-pyrrolidin-1-yl-ethyl)-1H-imidazol-2-yl]-piperidin-1-yl}-7,8-dihydro-5H-ptericlin-6-one] | > 1000 nM | > 1000 nM |
